According to ChEMBL document CHEMBL3774345, “Synthesis of new diarylamides with pyrimidinyl pyridine scaffold and evaluation of their anti-proliferative effect on cancer cell lines” (Bioorg Med Chem Lett, 2016):
pIC50: −log10 of the molar value.

Key:
CCRF-CEM = test: Cytotoxicity against human CCRF-CEM cells assessed as cell growth at 10^-7 M after 24 hrs by SRB assay; type: functional; conditions: read-out: Activity
[1] = Cytotoxicity against human HOP62 cells assessed as cell growth at 10^-7 M after 24 hrs by SRB assay; type: functional; conditions: HOP-62, 24 h, read-out: Activity
SR = test: Cytotoxicity against human SR cells assessed as cell growth at 10^-4 M after 24 hrs by SRB assay; type: functional; conditions: read-out: Activity
EKVX = test: Cytotoxicity against human EKVX cells assessed as cell growth at 10^-4 M after 24 hrs by SRB assay; type: functional; conditions: read-out: Activity
[2] = Cytotoxicity against human SF268 cells assessed as cell growth at 10^-7 M after 24 hrs by SRB assay; type: functional; conditions: SF-268, 24 h, read-out: Activity
[3] = Cytotoxicity against human OVCAR8 cells assessed as cell growth at 10^-7 M after 24 hrs by SRB assay; type: functional; conditions: OVCAR-8, 24 h, read-out: Activity
NCI-H322M [4] = test: Cytotoxicity against human NCI-H322M cells after 24 hrs by SRB assay; type: functional
[5] = Cytotoxicity against human COLO205 cells after 24 hrs by SRB assay; type: functional, cell-based; conditions: COLO 205, 24 h
[6] = Cytotoxicity against human SNB75 cells after 24 hrs by SRB assay; type: functional, cell-based; conditions: SNB-75, 24 h
[7] = Cytotoxicity against human LOXIMVI cells after 24 hrs by SRB assay; type: functional, cell-based; conditions: LOX IMVI
[8] = Cytotoxicity against human HOP92 cells assessed as cell growth at 10^-4 M after 24 hrs by SRB assay; type: functional; conditions: HOP-92, 24 h, read-out: Activity
[9] = Cytotoxicity against human HCT15 cells assessed as cell growth at 10^-4 M after 24 hrs by SRB assay; type: functional; conditions: HCT-15, 24 h, read-out: Activity
K562 = test: Cytotoxicity against human K562 cells assessed as cell growth at 10^-6 M after 24 hrs by SRB assay; type: functional; conditions: K562, 24 h, read-out: Activity
[10] = Cytotoxicity against human RPMI8226 cells assessed as cell growth at 10^-6 M after 24 hrs by SRB assay; type: functional; conditions: RPMI-8226, 24 h, read-out: Activity
MDA-MB-435 [11] = test: Cytotoxicity against human MDA-MB-435 cells assessed as cell growth at 10^-4 M after 24 hrs by SRB assay; type: functional; conditions: MDA-MB-435, 24 h, read-out: Activity
[12] = Cytotoxicity against human OVCAR3 cells assessed as cell growth at 10^-4 M after 24 hrs by SRB assay; type: functional; conditions: OVCAR-3, 24 h, read-out: Activity
SN12C = test: Cytotoxicity against human SN12C cells assessed as cell growth at 10^-4 M after 24 hrs by SRB assay; type: functional; conditions: read-out: Activity
[13] = Cytotoxicity against human Hs 578T cells assessed as cell growth at 10^-4 M after 24 hrs by SRB assay; type: functional; conditions: read-out: Activity
KM12 = test: Cytotoxicity against human KM12 cells assessed as cell growth at 10^-6 M after 24 hrs by SRB assay; type: functional; conditions: KM12, 24 h, read-out: Activity
SK-MEL-2 = test: Cytotoxicity against human SK-MEL-2 cells assessed as cell growth at 10^-6 M after 24 hrs by SRB assay; type: functional; conditions: SK-MEL-2, 24 h, read-out: Activity
[14] = Cytotoxicity against human OVCAR4 cells assessed as cell growth at 10^-6 M after 24 hrs by SRB assay; type: functional; conditions: OVCAR-4, 24 h, read-out: Activity
[15] = Cytotoxicity against human UO31 cells assessed as cell growth at 10^-6 M after 24 hrs by SRB assay; type: functional; conditions: UO-31, 24 h, read-out: Activity
[16] = Cytotoxicity against human DU145 cells assessed as cell growth at 10^-6 M after 24 hrs by SRB assay; type: functional; conditions: DU-145, 24 h, read-out: Activity
[17] = Cytotoxicity against human Hs 578T cells assessed as cell growth at 10^-6 M after 24 hrs by SRB assay; type: functional; conditions: read-out: Activity
[18] = Cytotoxicity against human HL-60(TB) cells after 24 hrs by SRB assay; type: functional; conditions: HL-60, 24 h
[19] = Cytotoxicity against human HCT116 cells assessed as cell growth at 10^-8 M after 24 hrs by SRB assay; type: functional; conditions: HCT-116, 24 h, read-out: Activity
[20] = Cytotoxicity against human LOXIMVI cells assessed as cell growth at 10^-8 M after 24 hrs by SRB assay; type: functional; conditions: LOX IMVI, read-out: Activity
[21] = Cytotoxicity against human HL-60(TB) cells assessed as cell growth at 10^-5 M after 24 hrs by SRB assay; type: functional; conditions: HL-60, 24 h, read-out: Activity
NCI-H322M [22] = test: Cytotoxicity against human NCI-H322M cells assessed as cell growth at 10^-5 M after 24 hrs by SRB assay; type: functional; conditions: read-out: Activity
[23] = Cytotoxicity against human SNB19 cells assessed as cell growth at 10^-5 M after 24 hrs by SRB assay; type: functional; conditions: SNB-19, 24 h, read-out: Activity
[24] = Cytotoxicity against human SNB75 cells assessed as cell growth at 10^-5 M after 24 hrs by SRB assay; type: functional; conditions: SNB-75, 24 h, read-out: Activity
Malme-3M = test: Cytotoxicity against human MALME-3M cells assessed as cell growth at 10^-5 M after 24 hrs by SRB assay; type: functional; conditions: read-out: Activity
MDA-MB-435 [25] = test: Cytotoxicity against human MDA-MB-435 cells assessed as cell growth at 10^-5 M after 24 hrs by SRB assay; type: functional; conditions: MDA-MB-435, 24 h, read-out: Activity
[26] = Cytotoxicity against human Hs 578T cells assessed as cell growth at 10^-5 M after 24 hrs by SRB assay; type: functional; conditions: read-out: Activity
T47D = test: Cytotoxicity against human T47D cells assessed as cell growth at 10^-5 M after 24 hrs by SRB assay; type: functional; conditions: read-out: Activity
[27] = read-out: LC50 (the source's name)
[28] = read-out: pLC50 (the source's name) (converted)

## O=C(Nc1cc(-c2cccnc2)nc(NCCCN2CCOCC2)n1)c1cc(Br)cc(C(F)(F)F)c1
CCRF-CEM
  growth at 0.1 µM: 105%
[1]
  growth at 0.1 µM: 85%
SR
  growth at 100 µM: -1%
EKVX
  growth at 100 µM: -89%
[2]
  growth at 0.1 µM: 94%
[3]
  growth at 0.1 µM: 101%
NCI-H322M [4]; read-out: GI50
  GI50: 3.72 µM
NCI-H322M [4]; [27]
  CC50: 43.2 µM
NCI-H322M [4]; read-out: TGI
  TGI: 15 µM
NCI-H322M [4]; read-out: pGI50 (converted)
  GI50: 3.72 µM
NCI-H322M [4]; [28]
  CC50: 43.7 µM
NCI-H322M [4]; read-out: pTGI (converted)
  TGI: 15.1 µM
[5]; read-out: GI50
  GI50: 1.77 µM
[5]; [27]
  CC50: 6.79 µM
[5]; read-out: TGI
  TGI: 3.47 µM
[5]; read-out: pGI50 (converted)
  GI50: 1.78 µM
[5]; [28]
  CC50: 6.76 µM
[5]; read-out: pTGI (converted)
  TGI: 3.47 µM
[6]
  pIC50: 5.82
[6]; read-out: GI50
  GI50: 1.52 µM
[6]; [27]
  CC50: 8.46 µM
[6]; read-out: TGI
  TGI: 3.59 µM
[6]; read-out: pGI50 (converted)
  GI50: 1.51 µM
[6]; [28]
  CC50: 8.51 µM
[6]; read-out: pTGI (converted)
  TGI: 3.55 µM
[7]
  pIC50: 5.79
[7]; read-out: GI50
  GI50: 1.62 µM
[7]; [27]
  CC50: 5.79 µM
[7]; read-out: TGI
  TGI: 3.06 µM
[7]; read-out: pGI50 (converted)
  GI50: 1.62 µM
[7]; [28]
  CC50: 5.75 µM
[7]; read-out: pTGI (converted)
  TGI: 3.09 µM
[8]
  growth at 100 µM: -94%
[9]
  growth at 100 µM: -96%
K562
  growth at 1 µM: 88%
[10]
  growth at 1 µM: 101%
MDA-MB-435 [11]
  growth at 100 µM: -100%
[12]
  growth at 100 µM: -100%
SN12C
  growth at 100 µM: -85%
[13]
  growth at 100 µM: -35%
KM12
  growth at 1 µM: 96%
SK-MEL-2
  growth at 1 µM: 94%
[14]
  growth at 1 µM: 84%
[15]
  growth at 1 µM: 69%
[16]
  growth at 1 µM: 101%
[17]
  growth at 1 µM: 94%
[18]; read-out: GI50
  GI50: 2.15 µM
[18]; [27]
  CC50: 90.1 µM
[18]; read-out: TGI
  TGI: 5.86 µM
[18]; read-out: pGI50 (converted)
  GI50: 2.14 µM
[18]; [28]
  CC50: 89.1 µM
[18]; read-out: pTGI (converted)
  TGI: 5.89 µM
[19]
  growth at 0.01 µM: 102%
[20]
  growth at 0.01 µM: 93%
[21]
  growth at 10 µM: -27%
NCI-H322M [22]
  growth at 10 µM: 19%
[23]
  growth at 10 µM: -33%
[24]
  growth at 10 µM: -60%
Malme-3M
  growth at 10 µM: -72%
MDA-MB-435 [25]
  growth at 10 µM: -90%
[26]
  growth at 10 µM: -7%
T47D
  growth at 10 µM: 21%
